A short description of series [1]: log P determination by HPLC (EEC directive 79/831 Annex V.A8). It is filed as physicochemical. The note with it: pH 2.3; HPLC gradient method, acetonitrile/0.1% aqueous phosphoric acid. Here is the method:
[The log P values were determined in accordance with EEC directive 79/831 Annex V.A8 by HPLC (gradient method, acetonitrile/0.1% aqueous phosphoric acid)]

Another series concerns Meloidogyne incognita. The series can be described thus: Meloidogyne test. It is filed as in vivo. The note with it: 20 ppm, after 2 weeks, lettuce in sand. The protocol:
To produce a suitable preparation of active compound, 1 part by weight of active compound is mixed with the stated amounts of solvent and emulsifier, and the concentrate is diluted with water to the desired concentration.
Containers are filled with sand, solution of active compound, Meloidogyne incognita egg/larvae suspension and lettuce seeds. The lettuce seeds germinate and the plants develop. Galls form on the roots.
After 2 weeks, the nematicidal activity is determined by the gall formation in %. 100% means that no galls have been found; 0% activity means that the number of galls on the treated plants corresponds to that of the untreated control.

The structures appear in SMILES notation.

The term chromatographic logP denotes lipophilicity estimated from chromatographic retention. Higher therefore signals a more lipophilic compound.

Regarding `C/C(=N\C#N)NC(C)C1CCCCC1` (stereo not drawn) [Example 1, R-(−)-N-cyano-N′-cyclohexyl-eth-1-yl-ethane-imid-amide], the chromatographic logP in series [1] is 2.19. For the same compound, in the series with Meloidogyne incognita, the “kill (nematicidal activity by gall formation)” value was 100%.
